Source: patent US7521478B2, “Total synthesis of myriaporones” (Pharma Mar, S.A.U., priority 2002, dated 2009)

Key:
Type in all cases: cell-based
IGROV = assay: Inhibition of cell growth by colorimetric SRB assay, IGROV; conditions: Homo sapiens, 48 hours exposure; for CC50: cell killing, read-out: LC50 (the source's name); for IC (total growth inhibition): read-out: TGI
From the text: (§1) The finality of these assays is to interrupt the growth of a “in vitro” tumor cell culture by means a continued exhibition of the cells to the sample to be testing.
(§2) Inhibition of Cell Growth by Colorimetric Assay.
(§3) A colorimetric type of assay, using sulforhodamine B (SRB) reaction has been adapted for a quantitative measurement of cell growth and viability (following the technique described by P. A. Skehan, et al., J. Natl. CancerInst. 1990, 82, 1107-1112).
(§4) This form of assay employs 96 well cell culture microplates of 9 mm diameter (T. Mosmann et al., J. of Immuological Methods 1983, 65, 55-63; G. T. Faircloth et al., J. of Tissue and Culture Methods 1988, 11, 201-205). Most of the cell lines are obtained from American Type Culture Collection (ATCC) derived from different human cancer types.
(§5) Cells are maintained in RPMI 1640 10% FBS, supplemented with 0.1 g/L penicillin and 0.1 g/L streptomycin sulfate and then incubated at 37° C., 5% CO2 and 98% humidity. For the experiments, cells were harvested from subconfluent cultures using trypsin and resuspended in fresh medium before plating.
(§6) Cells are seeded in 96 well microtiter plates, at 5×10^3 cells per well in aliquots of 195 μL medium, and they are allowed to attach to the plate surface by growing in drug free medium for 18 hours. Afterward, samples are added in aliquots of 5 μL in a ranging from 10 to 10^−8 μg/mL, dissolved in DMSO/EtOH/PBS (0.5:0.5:99). After 48 hours exposure, the antitumor effect are measured by the SRB methodology: cells are fixed by adding 50 μL of cold 50% (wt/vol) trichloroacetic acid (TCA) and incubated for 60 minutes at 4° C. Plates are washed with deionizer water and dried. One hundred μl of SRB solution (0.4% wt/vol in 1% acetic acid) is added to each microliter well and incubated for 10 minutes at room temperature. Unbound SRB is removed by washing with 1% acetic acid. Plates are air dried and bound stain is solubilized with Tris buffer. Optical densities are read on a automated spectrophotometric plate reader at a single wavelength of 490 nm.
(§7) The values for mean +/−SD of data from triplicate wells are calculated. Some parameters for cellular responses can be calculated: GI=growth inhibition, TGI=total growth inhibition (cytostatic effect) and LC=cell killing (cytotoxic effect).

A-549 = assay: Inhibition of cell growth by colorimetric SRB assay, A-549; conditions: Homo sapiens, A549, A-549, 48 hours exposure; for CC50: cell killing, read-out: LC50 (the source's name); for IC (total growth inhibition): read-out: TGI
From the text: as §1, §2, §3, §4, §5, §6, §7

DU-145 = assay: Inhibition of cell growth by colorimetric SRB assay, DU-145; conditions: Homo sapiens, DU-145, 48 hours exposure; for CC50: cell killing, read-out: LC50 (the source's name); for IC (total growth inhibition): read-out: TGI
From the text: as §1, §2, §3, §4, §5, §6, §7

LoVo = assay: Inhibition of cell growth by colorimetric SRB assay, LOVO; conditions: Homo sapiens, LOVO, 48 hours exposure; for LC50: cell killing, read-out: LC50; for IC (total growth inhibition): read-out: TGI
From the text: as §1, §2, §3, §4, §5, §6, §7

LoVo-Dox = assay: Inhibition of cell growth by colorimetric SRB assay, LOVO-DOX; conditions: Homo sapiens, LOVO-DOX, 48 hours exposure; for LC50 (concentration for 50% cell killing): read-out: LC50; for IC (total growth inhibition): read-out: TGI
From the text: as §1, §2, §3, §4, §5, §6, §7

SK-MEL-28 = assay: Inhibition of cell growth by colorimetric SRB assay, MEL-28; conditions: Homo sapiens, SK-MEL-28, MEL-28, 48 hours exposure; for CC50: cell killing, read-out: LC50 (the source's name); for IC (total growth inhibition): read-out: TGI
From the text: as §1, §2, §3, §4, §5, §6, §7

HeLa = assay: Inhibition of cell growth by colorimetric SRB assay, HELA; conditions: Homo sapiens, HELA, 48 hours exposure; for CC50: cell killing, read-out: LC50 (the source's name); for IC (total growth inhibition): read-out: TGI
From the text: as §1, §2, §3, §4, §5, §6, §7

HT-29 = assay: Inhibition of cell growth by colorimetric SRB assay, HT-29; conditions: Homo sapiens, HT-29, 48 hours exposure; for CC50: cell killing, read-out: LC50 (the source's name); for IC (total growth inhibition): read-out: TGI
From the text: as §1, §2, §3, §4, §5, §6, §7

HeLa-APL = assay: Inhibition of cell growth by colorimetric SRB assay, HELA-APL; conditions: Homo sapiens, HELA-APL, 48 hours exposure; for CC50: cell killing, read-out: LC50 (the source's name)
From the text: as §1, §2, §3, §4, §5, §6, §7

PANC-1 = assay: Inhibition of cell growth by colorimetric SRB assay, PANC-1; conditions: Homo sapiens, PANC-1, 48 hours exposure; for CC50: cell killing, read-out: LC50 (the source's name); for IC (total growth inhibition): read-out: TGI
From the text: as §1, §2, §3, §4, §5, §6, §7

IGROV-ET = assay: Inhibition of cell growth by colorimetric SRB assay, IGROV-ET; conditions: Homo sapiens, IGROV-ET, 48 hours exposure; for CC50: cell killing, read-out: LC50 (the source's name); for IC (total growth inhibition): read-out: TGI
From the text: as §1, §2, §3, §4, §5, §6, §7

SK-BR-3 = assay: Inhibition of cell growth by colorimetric SRB assay, SK-BR-3; conditions: SK-BR-3, 48 hours exposure; for GI50 / CC50: Homo sapiens; for CC50: cell killing, read-out: LC50 (the source's name); for TGI: total growth inhibition
From the text: as §1, §2, §3, §4, §5, §6, §7

Structure (SMILES) | GI50 (A-549) | CC50 (A-549) | IC (total growth inhibition) (A-549) | GI50 (DU-145) | CC50 (DU-145) | IC (total growth inhibition) (DU-145) | GI50 (LoVo) | LC50 (LoVo) | IC (total growth inhibition) (LoVo) | GI50 (LoVo-Dox) | LC50 (concentration for 50% cell killing) (LoVo-Dox) | IC (total growth inhibition) (LoVo-Dox) | GI50 (SK-MEL-28) | CC50 (SK-MEL-28) | IC (total growth inhibition) (SK-MEL-28) | GI50 (HeLa) | CC50 (HeLa) | IC (total growth inhibition) (HeLa) | CC50 (HeLa-APL) | GI50 (PANC-1) | also measured
C/C=C\[C@H](C)[C@H]1OC1(C)[C@@H](O)[C@@H](CO)C(=O)[C@@H](CO)[C@H](O)CC(=O)CC (stereo partly drawn) [3d + 4d] | 26.8 µM | 26.8 µM | 26.8 µM | 26.8 µM | 26.8 µM | 26.8 µM | 26.8 µM | 26.8 µM | 26.8 µM | 26.8 µM | 26.8 µM | 26.8 µM | 26.8 µM | 26.8 µM | 26.8 µM | 26.8 µM | 26.8 µM | 26.8 µM | 26.8 µM | 13.5 µM | GI50 (IGROV): 20.5 µM; CC50 (IGROV): 26.8 µM; IC (total growth inhibition) (IGROV): 26.8 µM; GI50 (HT-29): 26.8 µM; CC50 (HT-29): 26.8 µM; IC (total growth inhibition) (HT-29): 26.8 µM; GI50 (HeLa-APL; read-out: GI50): 26.8 µM; IC (total growth inhibition) (HeLa-APL; total growth inhibition, read-out: TGI): 26.8 µM; CC50 (PANC-1): 26.8 µM; IC (total growth inhibition) (PANC-1): 26.8 µM; GI50 (IGROV-ET): 17.1 µM; CC50 (IGROV-ET): 26.8 µM; IC (total growth inhibition) (IGROV-ET): 26.8 µM; GI50 (SK-BR-3): 20.5 µM; CC50 (SK-BR-3): 26.8 µM; TGI (SK-BR-3): 2.68E−05 Molar
C/C=C\[C@H](C)[C@H]1OC1(C)[C@@H](O[Si](C)(C)C(C)(C)C)[C@@H](CO)C(=O)[C@@H](CO)[C@H](O)CC(=O)CC (stereo partly drawn) [31b + 31d] | 20.5 µM | 20.5 µM | 20.5 µM | 20.5 µM | 20.5 µM | 20.5 µM | 20.5 µM | 20.5 µM | 20.5 µM | 20.5 µM | 20.5 µM | 20.5 µM | 20.5 µM | 20.5 µM | 20.5 µM | 20.5 µM | 20.5 µM | 20.5 µM | 20.5 µM | 12.6 µM | GI50 (IGROV): 16.5 µM; CC50 (IGROV): 20.5 µM; IC (total growth inhibition) (IGROV): 20.5 µM; GI50 (HT-29): 20.5 µM; CC50 (HT-29): 20.5 µM; IC (total growth inhibition) (HT-29): 20.5 µM; CC50 (PANC-1): 20.5 µM; IC (total growth inhibition) (PANC-1): 20.5 µM; GI50 (IGROV-ET): 20.5 µM; CC50 (IGROV-ET): 20.5 µM; IC (total growth inhibition) (IGROV-ET): 20.5 µM; GI50 (SK-BR-3): 20.2 µM; CC50 (SK-BR-3): 20.5 µM; TGI (SK-BR-3): 2.05E−05 Molar
C/C=C\[C@H](C)[C@H]1OC1(C)[C@@H](O[Si](C)(C)C(C)(C)C)[C@@H](CO[Si](C)(C)C(C)(C)C)C(=O)[C@@H](CO[Si](C)(C)C(C)(C)C)[C@H](CC(=O)CC)O[Si](C)(C)C(C)(C)C (stereo partly drawn) [Compound 30a] | 12.1 µM | 12.1 µM | 12.1 µM | 12.1 µM | 12.1 µM | 12.1 µM | 6.37 µM | 12.1 µM | 12.1 µM | 12.1 µM | 12.1 µM | 12.1 µM | 12.1 µM | 12.1 µM | 12.1 µM | 12.1 µM | 12.1 µM | 12.1 µM | 12.1 µM | 12.1 µM | CC50 (PANC-1): 12.1 µM; IC (total growth inhibition) (PANC-1): 12.1 µM; GI50 (IGROV-ET): 8.27 µM; CC50 (IGROV-ET): 12.1 µM; IC (total growth inhibition) (IGROV-ET): 12.1 µM; GI50 (SK-BR-3): 8.56 µM; CC50 (SK-BR-3): 12.1 µM; TGI (SK-BR-3): 1.21E−05 Molar
C/C=C\[C@H](C)[C@H]1OC1(C)[C@@H](O[Si](C)(C)C(C)(C)C)[C@@H](CO[Si](C)(C)C(C)(C)C)C(=O)[C@@H](CO[Si](C)(C)C(C)(C)C)[C@@H](CC(=O)CC)O[Si](C)(C)C(C)(C)C (stereo partly drawn) [Compound 30b] | 12.1 µM | 12.1 µM | 12.1 µM | 12.1 µM | 12.1 µM | 12.1 µM | 6.88 µM | 12.1 µM | 12.1 µM | 12.1 µM | 12.1 µM | 12.1 µM | 12.1 µM | 12.1 µM | 12.1 µM | 12.1 µM | 12.1 µM | 12.1 µM | 12.1 µM | 12.1 µM | CC50 (PANC-1): 12.1 µM; IC (total growth inhibition) (PANC-1): 12.1 µM; GI50 (IGROV-ET): 8.27 µM; CC50 (IGROV-ET): 12.1 µM; IC (total growth inhibition) (IGROV-ET): 12.1 µM; GI50 (SK-BR-3): 12.1 µM; CC50 (SK-BR-3): 12.1 µM; TGI (SK-BR-3): 1.21E−05 Molar
